Data on eleven compounds can be found in PubChem BioAssay (NCI).

Molecules are shown by their SMILES. Where “and” joins values, the source holds several entries; their conditions need not be identical. Equal values may be shown once.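 How tested: cells in 96-well plates exposed to compound for 48 hours at five concentrations. At the GI50, growth is halved. TGI is the concentration that stops growth completely.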

Test systems include HCT-15 colon; HS 578T breast; DU-145 prostate; U251 CNS; SK-MEL-5 melanoma; SNB-19 CNS; NCI-H522 lung; MALME-3M melanoma.
Common to all, as to assay: NCI tumour cell line growth inhibition, 48 h

As to `COc1cc(/C=C2\C[C@H]3[C@@H]4CC=C5C[C@@H](OC(C)=O)CC[C@]5(C)[C@H]4CC[C@]3(C)[C@H]2OC(C)=O)ccc1OCCCn1ccnc1`, the GI50 with HCT-15 colon is 7.5 µM; in the assay on HS 578T breast, 5.85 µM; in the assay on DU-145 prostate, 9.14 µM; in the assay on U251 CNS it was 6.28 µM; in the assay with SK-MEL-5 melanoma, 7.25 µM; in the assay with SNB-19 CNS it was 21.3 µM. The GI50 in the assay on NCI-H522 lung was 12.8 µM. The TGI in the assay on HCT-15 colon was 16 µM; with HS 578T breast, 16.5 µM; in the assay with DU-145 prostate it was 18.7 µM; in the assay with U251 CNS, 12.7 µM; in the assay with SK-MEL-5 melanoma, 15.4 µM; in the assay with SNB-19 CNS it was > 50 µM. The TGI with NCI-H522 lung was > 36.3 µM.

As to `O=C(/C=C/c1ccc2c(c1)OCO2)c1ccccc1`, the GI50 in the assay on MALME-3M melanoma is 13.9 µM; with HCT-15 colon, 16.6 µM; in the assay on HS 578T breast, 11.8 µM; with DU-145 prostate, 10.2 µM; in the assay on U251 CNS, 5.62 µM; with SK-MEL-5 melanoma, 15.6 µM. For the same compound, the GI50 in the assay on SNB-19 CNS is 15.1 µM. For the same compound, the TGI is 37.9 µM in the assay with MALME-3M melanoma; > 100 µM in the assay on HCT-15 colon; 45.6 µM with HS 578T breast; 22.1 µM with DU-145 prostate; 19 µM with U251 CNS; 29.4 µM in the assay with SK-MEL-5 melanoma. In the assay on SNB-19 CNS, this compound showed a TGI of 32.1 µM.

`COc1ccc(C(=O)O)c2c(=O)c3ccccc3[nH]c12`: the TGI with MALME-3M melanoma, with HCT-15 colon, in the assay with U251 CNS, with SNB-19 CNS and in the assay on NCI-H522 lung was > 100 µM throughout.

For `N#Cc1c(N)nc(N2CCOCC2)c(C#N)c1-c1cccc(O)c1`, the GI50 with HCT-15 colon is 67 µM; in the assay with HS 578T breast it was 40.7 µM; in the assay on DU-145 prostate it was > 100 µM; in the assay on U251 CNS, > 100 µM; with SK-MEL-5 melanoma it was > 100 µM; in the assay on SNB-19 CNS it was > 100 µM. Further, the TGI in the assay on HCT-15 colon, with HS 578T breast, with DU-145 prostate, in the assay on U251 CNS, with SK-MEL-5 melanoma and in the assay with SNB-19 CNS was > 100 µM in each case.

Regarding `Cc1cc2c(cc1C)[n+](=O)c(C(=O)c1cccs1)c(C(F)(F)F)n2[O-]`, the GI50 in the assay with HCT-15 colon is 5.27 µM and 3.56 µM; in the assay on DU-145 prostate it was 1.05 µM and 2.15 µM; in the assay with U251 CNS, 6.83 µM and 3.96 µM; in the assay on SK-MEL-5 melanoma it was 0.724 µM and 1.3 µM; with SNB-19 CNS, 4.61 µM and 7.76 µM; in the assay on NCI-H522 lung it was 2.29 µM and 2.17 µM. The TGI is 26 µM and 56 µM with HCT-15 colon; 4.12 µM and 6.87 µM in the assay with DU-145 prostate; 25.5 µM and 75.8 µM in the assay on U251 CNS; 1.78 µM and 2.8 µM with SK-MEL-5 melanoma; 50 µM and 52 µM with SNB-19 CNS; 15.5 µM and 8.26 µM in the assay with NCI-H522 lung.

In the case of `CCN(CC)CCCC(C)N/C(c1cccc(OC)c1)=c1\c(=O)[nH]n(-c2c3ccccc3nc3ccccc23)c(=O)\c1=C(/NC(C)CCCN(CC)CC)c1cccc(OC)c1` (stereo not given), the GI50 in the assay with MALME-3M melanoma was 1.9 µM; with HCT-15 colon, 1.02 µM; in the assay with HS 578T breast, 2.3 µM; in the assay on DU-145 prostate it was 1.44 µM; in the assay with SK-MEL-5 melanoma, 1.7 µM; with SNB-19 CNS it was 3.18 µM. For the same compound, the GI50 in the assay on NCI-H522 lung was 1.55 µM. Moreover, the TGI was found to be 3.54 µM in the assay with MALME-3M melanoma; 6.91 µM with HCT-15 colon; 7.28 µM in the assay on HS 578T breast; 8.86 µM in the assay with DU-145 prostate; 3.13 µM in the assay with SK-MEL-5 melanoma; 13 µM in the assay on SNB-19 CNS. Besides, in the assay on NCI-H522 lung, the TGI turned out to be 3.21 µM.

With `N#Cc1c(SCc2ccccc2)nc2[nH]c(=S)[nH]c(=S)c2c1-c1ccco1`, the GI50 with HCT-15 colon was 27.6 µM; with HS 578T breast, 70.6 µM; in the assay on DU-145 prostate it was 54 µM; in the assay with U251 CNS, > 100 µM; with SK-MEL-5 melanoma, 23.9 µM; in the assay with SNB-19 CNS, 62.2 µM. The GI50 with NCI-H522 lung is > 100 µM. Also, the TGI in the assay with HCT-15 colon, in the assay on HS 578T breast, with DU-145 prostate, in the assay with U251 CNS, in the assay on SK-MEL-5 melanoma and in the assay with SNB-19 CNS was > 100 µM each time. In addition, the TGI in the assay on NCI-H522 lung was > 100 µM.

Turning to `CCCN1C(=O)/C(=C/c2ccc(O)cc2)SC1=Nc1ccccc1`, the GI50 is 16.9 µM with HCT-15 colon; 17.4 µM in the assay on DU-145 prostate; 15.6 µM in the assay with U251 CNS; 22.8 µM with SK-MEL-5 melanoma; 21.1 µM in the assay with SNB-19 CNS; 39.7 µM with NCI-H522 lung. Also, the TGI with HCT-15 colon was 37.5 µM; in the assay with DU-145 prostate, 40.8 µM; with U251 CNS it was 29 µM; with SK-MEL-5 melanoma, 46 µM; in the assay with SNB-19 CNS, 46.5 µM; in the assay with NCI-H522 lung, > 100 µM.

In the case of `N#C/C(=C\c1ccc(Br)cc1)n1nnc2cc(F)c(F)cc21`, the GI50 in the assay with MALME-3M melanoma was 1.59 µM; in the assay with HCT-15 colon, 1.34 µM; in the assay with HS 578T breast, 2.71 µM; in the assay with U251 CNS, 1.6 µM; in the assay on SK-MEL-5 melanoma, 1.76 µM; with SNB-19 CNS, 1.64 µM. The GI50 in the assay with NCI-H522 lung is 1.35 µM. Besides, the TGI with MALME-3M melanoma was 3.12 µM; with HCT-15 colon, 2.93 µM; with HS 578T breast it was 8.3 µM; in the assay with U251 CNS it was 3.06 µM; in the assay with SK-MEL-5 melanoma, 3.17 µM; in the assay with SNB-19 CNS, 3.07 µM. In addition, the TGI in the assay with NCI-H522 lung turned out to be 3.25 µM.

Turning to `O=c1[nH]cnc2c1nnn2[C@@H]1O[C@H](CO)[C@@H](O)[C@H]1O`, the GI50 is 2.8 µM in the assay on HCT-15 colon; 17.6 µM with HS 578T breast; 1.72 µM with DU-145 prostate; 25.8 µM with U251 CNS; 13.1 µM with SK-MEL-5 melanoma; 4.55 µM with NCI-H522 lung. Further, the TGI in the assay with HCT-15 colon was > 100 µM; in the assay with HS 578T breast, > 100 µM; in the assay on DU-145 prostate, > 100 µM; in the assay with U251 CNS, > 100 µM; with SK-MEL-5 melanoma it was > 100 µM; in the assay with NCI-H522 lung it was 63.4 µM.

Turning to `COc1ccc2c(c1)/C(=C/c1c(-c3ccc(C)cc3)nc3sc(C)cn13)C(=O)N2`, the GI50 with MALME-3M melanoma is 25.2 µM; in the assay on HS 578T breast, 19.8 µM; in the assay with DU-145 prostate it was 4.75 µM; in the assay with SK-MEL-5 melanoma, 11.9 µM; in the assay on SNB-19 CNS, 20.6 µM; in the assay on NCI-H522 lung, 13.5 µM. Further, the TGI in the assay on MALME-3M melanoma is > 100 µM; in the assay with HS 578T breast, > 100 µM; in the assay with DU-145 prostate it was > 100 µM; in the assay on SK-MEL-5 melanoma, 30.5 µM; in the assay with SNB-19 CNS, > 100 µM; in the assay with NCI-H522 lung it was > 100 µM.
